Reference: article PMC12386283, “Elucidating the Complex Structural and Molecular Mechanisms Driving P-Glycoprotein-Mediated Transport of Cardiac Glycosides” (International Journal of Molecular Sciences, 2025)
Where “and” joins values, the source holds several entries; their conditions need not be identical. Identical values can stand only once. Like-named read-outs stand apart in the source and are kept apart here.

Tests used:
[1] = target: T1, wild-type mouse Pgp (MDR3) (Mus musculus, UniProt P21447); assay: biochemical
T1 sequence (P21447 whole entry): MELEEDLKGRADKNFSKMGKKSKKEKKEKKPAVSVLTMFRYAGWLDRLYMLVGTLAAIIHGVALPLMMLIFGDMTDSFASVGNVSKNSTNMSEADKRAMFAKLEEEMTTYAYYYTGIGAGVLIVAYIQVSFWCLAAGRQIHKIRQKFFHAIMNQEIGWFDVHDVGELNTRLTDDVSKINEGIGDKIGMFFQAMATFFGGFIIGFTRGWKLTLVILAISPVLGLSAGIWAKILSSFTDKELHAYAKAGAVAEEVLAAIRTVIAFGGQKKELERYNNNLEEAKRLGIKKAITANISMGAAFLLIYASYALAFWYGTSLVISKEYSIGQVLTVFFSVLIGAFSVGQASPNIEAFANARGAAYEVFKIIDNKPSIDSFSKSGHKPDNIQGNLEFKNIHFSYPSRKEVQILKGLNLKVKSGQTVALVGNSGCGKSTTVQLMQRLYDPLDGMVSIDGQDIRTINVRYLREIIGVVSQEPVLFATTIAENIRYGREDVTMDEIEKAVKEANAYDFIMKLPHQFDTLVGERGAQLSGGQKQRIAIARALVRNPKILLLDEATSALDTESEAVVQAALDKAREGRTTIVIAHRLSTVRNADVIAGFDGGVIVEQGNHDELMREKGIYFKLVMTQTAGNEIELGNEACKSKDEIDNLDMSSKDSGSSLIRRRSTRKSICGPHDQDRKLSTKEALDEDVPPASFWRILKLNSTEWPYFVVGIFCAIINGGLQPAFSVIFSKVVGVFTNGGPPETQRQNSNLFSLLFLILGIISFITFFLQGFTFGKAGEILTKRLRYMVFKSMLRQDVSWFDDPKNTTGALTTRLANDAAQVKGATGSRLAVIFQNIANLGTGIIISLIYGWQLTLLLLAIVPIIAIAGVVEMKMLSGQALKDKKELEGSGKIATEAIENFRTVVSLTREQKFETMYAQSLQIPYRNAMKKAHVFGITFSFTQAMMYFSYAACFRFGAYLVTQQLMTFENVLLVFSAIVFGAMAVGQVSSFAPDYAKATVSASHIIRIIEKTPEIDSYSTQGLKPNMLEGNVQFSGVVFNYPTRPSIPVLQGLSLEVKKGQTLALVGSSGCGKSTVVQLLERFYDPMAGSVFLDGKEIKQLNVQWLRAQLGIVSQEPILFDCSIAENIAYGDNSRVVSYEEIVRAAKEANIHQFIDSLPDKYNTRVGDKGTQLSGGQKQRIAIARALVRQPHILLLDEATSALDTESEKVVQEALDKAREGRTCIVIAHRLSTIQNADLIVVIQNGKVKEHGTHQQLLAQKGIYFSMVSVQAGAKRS
Procedure: (§1) Overexpression of wild-type mouse Pgp (MDR3) was achieved by using genetically engineered strains of Pichia pastoris with a 6X histidine tag. The cells were cultured in glycerol media, and methanol was used to induce the overexpression of Pgp at the Bioexpression and Fermentation Facility (BFF), University of Georgia, Athens, GA, USA. A repeated cycle of freezing using liquid nitrogen, blending, and thawing was used to lyse the Pgp-expressing P. pastoris cells. The protein was purified using affinity chromatography with nickel-nitrilotriacetic acid (Ni-NTA) resin (Thermo Fisher Scientific, Waltham, MA, USA). DDM was used to solubilize the protein, and the solution was concentrated using Amicon Ultra-15 100 kDa cut-off filters (EMD Millipore, Billerica, MA, USA). The concentration of purified protein was measured at 280 nm using a calculated extinction coefficient of 1.28 per mg mL^−1 on a Nanodrop (DeNovix, Wilmington, DE, USA). […] The purified DDM-solubilized Pgp was aliquoted and stored at −80 °C for future analysis.
(§2) Approximately 40 µL of DDM-solubilized Pgp was dialyzed for two hours against HEPES buffer (20 mM HEPES, 100 mM NaCl, 5 mM MgCl2, 2 mM DTT, pH 7.4) to remove any remnants of the detergent, DDM. The dialyzed protein was mixed with 4 mg mL^−1 of the extruded liposomes and incubated on ice for at least one hour to allow Pgp to integrate into the liposomes. To remove any additional detergent and further facilitate Pgp integration into the liposome, the solution was dialyzed for a second time for two hours in HEPES buffer to form proteoliposomes, and the concentration of Pgp reconstituted in liposomes was determined using the Bio-Rad DC Protein assay. Finally, the solution was aliquoted and stored at −80 °C for future use.
The intrinsic tryptophan residues in the protein can be selectively excited and emitted at 295 nm and 330 nm wavelengths, respectively. The binding of the drug to the protein can alter the spatial arrangement encountered by the tryptophan residue(s) and thereby regulate the fluorescence intensity of the protein [52]. […] Proteoliposomes diluted to 1 µM in Chifflet buffer containing 2 mM DTT were titrated against varying concentrations of drugs. The intrinsic protein fluorescence was measured at 330 nm upon excitation at 295 nm using an Olis DM 45 spectrophotometer (Olis Corporation, Bogart, GA, USA). To nullify the effect of Rayleigh bands on the observed spectra, a 10 nm band-pass filter was inserted on the excitation and emission paths of the spectrophotometer. The drug-induced quenching of intrinsic Pgp fluorescence was corrected (Fcorrected) for factors such as dilution, background fluorescence, and inner filter effects using the equation mentioned below (Equation (2)).(2) Fcorrected=F−B10^εexbex+εembemQ/2 where Fcorrected = Drug-induced quenching of intrinsic Pgp fluorescence; F = Emitted intrinsic Pgp fluorescence at 330 nm; [Q] = Concentration of drug; εex and εem = Excitation and emission extinction coefficients, respectively; bex and bem = Path lengths of excitation (0.4 mm) and emission (10 mm) wavelengths, respectively; and B = Background fluorescence measured from drug and solvent.
The resulting quenching curves were fit using a modified Stern-Volmer equation (Equation (3)), as follows:(3) Fcorrected=FOcorrected/1+KsvQ+Funquenched where Fcorrected = The corrected fluorescence; F0(corrected) = Fluorescence recorded in the absence of drug; [Q] = Concentration of drug; Ksv = Stern–Volmer constant; and F(unquenched) = unquenched fluorescence.

[2] = target: T1, wild-type mouse Pgp (MDR3); assay: Pgp-mediated ATPase activity (Chifflet colorimetric Pi assay, proteoliposomes)
Procedure: as §1, with “USA).” for “USA). The concentration of purified protein was measured at 280 nm using a calculated extinction coefficient of 1.28 per mg mL^−1 on a Nanodrop (DeNovix, Wilmington, DE, USA).”
Pgp was reconstituted into liposomes as previously described. Briefly, liposomes comprising 80% (w/v) Avanti Escherichia coli total lipid extract and 20% (w/v) cholesterol were dissolved in chloroform to achieve a final concentration of 10 mg mL^−1, and the volume was adjusted to 10 mL. […] The solution was subjected to ten cycles of freeze–thaw using liquid nitrogen and a water bath (67 °C), resulting in the formation of liposomes with varying sizes, and extruded eleven times in a LIPEX extruder (Northern Lipids, Burnaby, BC, Canada) to produce identical-sized liposomes, using a 400 nm cut-off filter.
as §2
The Chifflet method is a colorimetric method that measures the amount of free inorganic phosphate (Pi) through the formation of ammonium molybdate and Pi complex, which produces a strong absorbance at 850 nm. The absorbance was measured on a 96-well plate using a CLARIOstar microplate reader (BMG Labtech, Ortenberg, Germany). […] The final concentrations of the proteoliposome and ATP were maintained at 50 nM and 3.2 mM, respectively. Orthovanadate was used as a control and run in parallel to the samples. Finally, the kinetic curves for ATPase activity were fit to a modified Michaelis-Menten equation (Equation (1)). Igor 6.2 Pro software (Wavemetrics, Tigard, OR, USA) was used for data analysis.(1) V=VmaxS/Km+S+Vbasal where V = Rate of ATP hydrolysis; Vmax = Maximum velocity of ATP hydrolysis; [S] = Substrate concentration; Km = Michaelis–Menten constant; and Vbasal = basal ATPase activity.

[3] = 1 µM proteoliposome, excitation 295 nm, emission 330 nm, absence of ATP and co-factors

Structure (SMILES): C[C@H]1O[C@@H](O[C@H]2[C@@H](O)C[C@H](O[C@H]3[C@@H](O)C[C@H](O[C@H]4CC[C@@]5(C)[C@H](CC[C@@H]6[C@@H]5C[C@@H](O)[C@]5(C)[C@@H](C7=CC(=O)OC7)CC[C@]65O)C4)O[C@@H]3C)O[C@@H]2C)C[C@H](O)[C@@H]1O [Digoxin]
- Kd [1]: 6.85 ± 0.83 µM
- Stern-Volmer constant (Ksv) from CG-induced tryptophan fluorescence quenching in Pgp [1]: 0.146 ± 0.0117 and 0.146 ± 0.0117 µM^−1
- Effect on Pgp's ATPase hydrolytic activity relative to basal [2]: induced
- Vmax of CG-induced Pgp-mediated ATP hydrolysis [2]: 277.53 ± 7.24 nmol min^−1 mg^−1 and 277.53 ± 7.24

Structure (SMILES): C[C@]12CC[C@H](O)C[C@H]1CC[C@@H]1[C@@H]2CC[C@]2(C)[C@@H](C3=CC(=O)OC3)CC[C@]12O [Digitoxigenin, (3β,5β)-3,14-Dihydroxy-card-20(22)-enolide]
- Kd [1]: 56.7 ± 15.6 µM
- Stern-Volmer constant (Ksv) from CG-induced tryptophan fluorescence quenching in Pgp [1, 3]: 0.01765 ± 0.0048 µM⁻¹
- Effect on Pgp's ATPase hydrolytic activity relative to basal ([2]; in words): induced
- Vmax of CG-induced Pgp-mediated ATP hydrolysis ([2]; relative to the offset (basal activity), 37 °C, 3.2 mM ATP, 50 nM proteoliposome, modified Michaelis-Menten fit): 216.02 ± 16.01 nmol/min/mg

Structure (SMILES): C[C@]12CC[C@H](O)C[C@H]1CC[C@@H]1[C@@H]2C[C@@H](O)[C@]2(C)[C@@H](C3=CC(=O)OC3)CC[C@]12O [Digoxigenin, 3β,12β,14-Trihydroxy-5β,20(22)-cardenolide]
- Stern-Volmer constant (Ksv) from CG-induced tryptophan fluorescence quenching in Pgp [1, 3]: 0.09839 ± 0.0146 µM⁻¹
- Effect on Pgp's ATPase hydrolytic activity relative to basal ([2]; in words): induced
